Data published in ChEMBL document CHEMBL3045982, “Design, synthesis and structure-activity relationship of novel coumarin derivatives” (Pest Manag Sci, 2011).

How the values were obtained:
[1] = test system: Pseudoperonospora cubensis; assay: Fungicidal activity against Pseudoperonospora cubensis at 25 mg/L relative to untreated control; assay type: functional
[2] = test system: Pseudoperonospora cubensis; assay: Fungicidal activity against Pseudoperonospora cubensis at 6.25 mg/L relative to untreated control; assay type: functional
[3] = test system: Pseudoperonospora cubensis; assay: Fungicidal activity against Pseudoperonospora cubensis at 50 mg/L relative to untreated control; assay type: functional
[4] = test system: Pseudoperonospora cubensis; assay: Fungicidal activity against Pseudoperonospora cubensis at 200 mg/L relative to untreated control; assay type: functional
[5] = test system: Pseudoperonospora cubensis; assay: Fungicidal activity against Pseudoperonospora cubensis at 100 mg/L relative to untreated control; assay type: functional
Cytospora [6] = assay: Fungicidal activity against Cytospora mandshurica Miura at 1000 mg/L of 25% compound under field trials condition relative to untreated control; assay type: functional
Cytospora [7] = assay: Fungicidal activity against Cytospora mandshurica Miura under green house condition in presence of 98% compound; assay type: functional, organism-based
Cytospora [8] = assay: Fungicidal activity against Cytospora mandshurica Miura at 500 mg/L of 20% compound under field trials conditions relative to untreated control; assay type: functional
Cytospora [9] = assay: Fungicidal activity against Cytospora mandshurica Miura at 1000 mg/L of 20% compound under field trials condition relative to untreated control; assay type: functional
Cytospora [10] = assay: Fungicidal activity against Cytospora mandshurica Miura under green house condition in presence of 20% compound; assay type: functional, organism-based
Cytospora [11] = assay: Fungicidal activity against Cytospora mandshurica Miura under green house condition in presence of 96% compound; assay type: functional, organism-based

Row | SMILES | Activity [1] | Activity [2] | Activity [3] | Activity [4] | Activity [5] | Efficacy (Cytospora [6]) | EC50 (Cytospora [7]) | Efficacy (Cytospora [8]) | Efficacy (Cytospora [9]) | EC50 (Cytospora [10]) | EC50 (Cytospora [11])
1 | CO/C=C(/C(=O)OC)c1ccccc1COc1ccc2ccc(=O)oc2c1 | 50% | 0% | 70% | 100% | 100% | – | – | – | – | – | –
2 | CO/C=C(/C(=O)OC)c1ccccc1COc1ccc2c(C)cc(=O)oc2c1 | 97% | 45% | 100% | 100% | 100% | – | – | – | – | – | –
3 | CCc1cc(=O)oc2cc(OCc3ccccc3/C(=C\OC)C(=O)OC)ccc12 | 100% | 50% | 100% | 100% | 100% | – | – | – | – | – | –
4 | CCCc1cc(=O)oc2cc(OCc3ccccc3/C(=C\OC)C(=O)OC)ccc12 | 95% | 55% | 100% | 100% | 100% | – | – | – | – | – | –
5 | CO/C=C(/C(=O)OC)c1ccccc1COc1ccc2c(C(C)C)cc(=O)oc2c1 | 95% | 50% | 100% | 100% | 100% | – | – | – | – | – | –
6 | CO/C=C(/C(=O)OC)c1ccccc1COc1ccc2c(C(F)(F)F)cc(=O)oc2c1 | 70% | 50% | 80% | 100% | 95% | – | – | – | – | – | –
7 | CO/C=C(/C(=O)OC)c1ccccc1COc1ccc2c(-c3ccccc3)cc(=O)oc2c1 | 60% | 50% | 80% | 100% | 100% | – | – | – | – | – | –
8 | CO/C=C(/C(=O)OC)c1ccccc1COc1ccc2c(-c3ccc(Cl)cc3)cc(=O)oc2c1 | – | – | – | 70% | – | – | – | – | – | – | –
9 | CO/C=C(/C(=O)OC)c1ccccc1COc1ccc2c(-c3ccc(C(F)(F)F)cc3)cc(=O)oc2c1 | – | – | – | 85% | 70% | – | – | – | – | – | –
10 | CO/C=C(/C(=O)OC)c1ccccc1COc1ccc2c(-c3ccc(Cl)nc3)cc(=O)oc2c1 | 40% | 0% | 75% | 90% | 80% | – | – | – | – | – | –
11 | CO/C=C(/C(=O)OC)c1ccccc1COc1ccc2c(C)c(C)c(=O)oc2c1 | 100% | 85% | 100% | 100% | 100% | – | – | – | – | – | –
12 | CCc1c(C)c2ccc(OCc3ccccc3/C(=C\OC)C(=O)OC)cc2oc1=O | 20% | 0% | 80% | 100% | 100% | – | – | – | – | – | –
13 | CCCc1c(C)c2ccc(OCc3ccccc3/C(=C\OC)C(=O)OC)cc2oc1=O | 20% | 0% | 30% | 100% | 80% | – | – | – | – | – | –
14 | CCCCCCc1c(C)c2ccc(OCc3ccccc3/C(=C\OC)C(=O)OC)cc2oc1=O | 100% | 80% | 100% | 100% | 100% | – | – | – | – | – | –
15 | CO/C=C(/C(=O)OC)c1ccccc1COc1ccc2c(C)c(Cl)c(=O)oc2c1 | 100% | 75% | 100% | 100% | 100% | – | – | – | – | – | –
16 | CO/C=C(/C(=O)OC)c1ccccc1COc1ccc2c(C)c(F)c(=O)oc2c1 | 95% | 60% | 100% | 100% | 100% | – | – | – | – | – | –
17 | CO/C=C(/C(=O)OC)c1ccccc1COc1ccc2c3c(c(=O)oc2c1)CCC3 | 100% | 40% | – | – | – | – | – | – | – | – | –
18 | CO/C=C(/C(=O)OC)c1ccccc1COc1ccc2c3c(c(=O)oc2c1)CCCC3 | 100% | 75% | – | – | – | – | – | – | – | – | –
19 | CO/C=C(/C(=O)OC)c1ccccc1COc1ccc2c3c(c(=O)oc2c1C)CCC3 | – | – | – | 0% | – | – | – | – | – | – | –
20 | CO/C=C(/C(=O)OC)c1ccccc1COc1ccc2c3c(c(=O)oc2c1C)CCCC3 | – | – | – | 50% | – | – | – | – | – | – | –

Row | SMILES | Activity [1] | Activity [2] | Activity [3] | Activity [4] | Activity [5] | Efficacy (Cytospora [6]) | EC50 (Cytospora [7]) | Efficacy (Cytospora [8]) | Efficacy (Cytospora [9]) | EC50 (Cytospora [10]) | EC50 (Cytospora [11])
21 | CO/C=C(/C(=O)OC)c1ccccc1COc1ccc2c(-c3ccccc3)cc(=O)oc2c1C | 50% | 30% | 90% | 95% | 90% | – | – | – | – | – | –
22 | CO/C=C(/C(=O)OC)c1ccccc1COc1ccc2c(C)cc(=O)oc2c1C(C)=O | – | – | – | 60% | – | – | – | – | – | – | –
23 | CO/C=C(/C(=O)OC)c1ccccc1COc1ccc2c(C)cc(=O)oc2c1/C(C)=N/OC | – | – | – | 30% | – | – | – | – | – | – | –
24 | CO/C=C(/C(=O)OC)c1ccccc1COc1cc2oc(=O)cc(C)c2cc1C(C)=O | 50% | 0% | 80% | 90% | 85% | – | – | – | – | – | –
25 | CO/C=C(/C(=O)OC)c1ccccc1COc1cc2oc(=O)cc(C)c2cc1/C(C)=N\OC | – | – | – | 80% | – | – | – | – | – | – | –
26 | CO/N=C(/C(=O)OC)c1ccccc1COc1ccc2c(C)c(Cl)c(=O)oc2c1 | 85% | 65% | 90% | 100% | 100% | – | – | – | – | – | –
27 | CO/N=C(/C(=O)OC)c1ccccc1COc1ccc2c(C)c(C)c(=O)oc2c1C | 50% | 40% | 60% | 95% | 85% | – | – | – | – | – | –
28 | CNC(=O)/C(=N/OC)c1ccccc1COc1ccc2c(C)c(C)c(=O)oc2c1C | 20% | 0% | 30% | 95% | 85% | – | – | – | – | – | –
29 | COC(=O)N(OC)c1ccccc1COc1ccc2c(C)c(C)c(=O)oc2c1 | 85% | 65% | 100% | 100% | 100% | – | – | – | – | – | –
30 | CCCCc1c(C)c2ccc(OCc3ccccc3N(OC)C(=O)OC)cc2oc1=O | 75% | 50% | 90% | 100% | 100% | – | – | – | – | – | –
31 | COC(=O)N(OC)c1ccccc1COc1ccc2c(C)c(C)c(=O)oc2c1C | 50% | 0% | 75% | 90% | 80% | – | – | – | – | – | –
32 | CO/C=C(/C(=O)OC)c1ccccc1COc1cc(=O)oc2ccccc12 | 0% | 0% | 30% | 85% | 70% | – | – | – | – | – | –
33 | CO/C=C(/C(=O)OC)c1ccccc1COc1ccc2oc(=O)cc(C)c2c1 | 0% | 0% | 30% | 85% | 60% | – | – | – | – | – | –
34 | CO/C=C(/C(=O)OC)c1ccccc1COc1ccc2oc(=O)c(C)c(C)c2c1 | – | – | – | 70% | – | – | – | – | – | – | –
35 | CO/C=C(/C(=O)OC)c1ccccc1COc1cccc2c(C)c(C)c(=O)oc12 | – | – | – | 0% | – | – | – | – | – | – | –
36 | CO/C=C(/C(=O)OC)c1ccccc1Oc1cc(Oc2ccccc2C#N)ncn1 [AZOXYSTROBIN] | 100% | 95% | – | – | – | 73.5% | 2.78 µg/mL | – | – | – | –
37 | CCCCc1c(C)c2ccc(OCc3ccccc3/C(=C\OC)C(=O)OC)cc2oc1=O [Coumoxystrobin] | 100% | 95% | 100% | 100% | 100% | – | – | 88.5% | 97.3% | 1.72 µg/mL | 1.83 µg/mL
38 | CO/N=C(/C(=O)OC)c1ccccc1COc1ccccc1C [KRESOXIM-METHYL] | 35% | 0% | – | – | – | – | – | – | – | – | –
39 | CO/C=C(/C(=O)OC)c1ccccc1COc1cccc(C(F)(F)F)n1 [PICOXYSTROBIN] | 95% | 50% | – | – | – | – | – | – | – | – | –
